Our source for the EC50 and activation values is patent US10793557B2, “Sting agonist compounds” (Merck Sharp & Dohme Corp., priority 2018, dated 2020).

In one experiment the target is T1, full-length HAQ STING (Homo sapiens, UniProt Q86WV6, G230A/H232R/R293Q/R71H).
T1 construct: AviTag (after GG linker) (C); HRV3C cleavage site (after GS linker) (C); HIS8 (C); made in house; host or cells: Trichoplusia ni (Hi-Five) insect cells infected with baculovirus (virus generated and amplified in Sf21 cells); used as a washed membrane preparation
The experiment in a line: 3H-cGAMP filtration binding assay (HAQ STING). As to conditions: competition with tritiated cGAMP, HAQ STING membrane. The text has this: The ability of compounds to bind STING is quantified by the ability to compete with tritiated cGAMP ligand for human STING receptor membrane using a radioactive filter-binding assay. The binding assay employs STING receptor obtained from Hi-Five cell membranes overexpressing full-length HAQ STING prepared in-house and tritiated cGAMP ligand also purified in-house.
The ability of compounds to bind STING is quantified by their ability to compete with tritiated cGAMP ligand for human STING receptor membrane using a radioactive filter-binding assay. The binding assay employs STING receptor obtained from Trichoplusia ni cell membranes (T. ni; Expression Systems, cat #94-002F, www.expressionsystems.com) overexpressing full-length HAQ STING and tritiated cGAMP ligand.
The basic HAQ STING filtration assay protocol is as follows:
The compounds were serially titrated by the Hamilton STARPlus CORE in a 96-well plate (Greiner, #651201) using a 1:3 ten-point dose response format. After compound preparation, a 2.2 ug/ml working concentration of STING membrane (SEQ. ID. No. 1) was prepared by diluting concentrated membrane into assay buffer (1×PBS; Invitrogen # SH30028.02) and douncing 7× using a manual tissue homogenizer (Wheaton, #357546). 148 uL of prepared membrane was then manually added to each well of a 96-well deep-well polypropylene plate (Fisher Scientific, #12-566-121). Following membrane addition, 2 uL of either titrated test compound, DMSO control (Sigma #276855), or cold cGAMP control was added to the appropriate wells using a BIOMEK FX. Compound and membrane then preincubated for 60 min at RT to allow compound binding to equilibrate. Following equilibration, 8 nM of [^3H]c-GAMP ligand was prepared by diluting into assay buffer, and 50 uL of this working stock was then manually added to each well of the assay plate. Plates were then incubated at RT for 60 min, and the contents of each assay plate were then filtered through a 96-well GF/B filter plate (PerkinElmer, #6005250) using a TOMTEC MACH III Cell Harvester equipped with 20 mM HEPES buffer (Fisher Scientific, # BP299500). The filter plates were then dried at 55° C. for 30 min using a pressurized oven before 30 uL of ULTIMA GOLD F scintillate was added to each well. Tritium levels for each reaction well were then measured using a PerkinElmer TopCount plate reader.
(§1) After normalization to controls, the percent activity for each compound concentration was calculated by measuring the amount of remaining radioactivity. The plot of percent activity versus the log of compound concentration was fit with a 4-parameter dose response equation to calculate EC50 values.

In experiment [1] the test system is secretion of interferon-beta from THP1 cells. Briefly: IFN-β secretion in THP1 cell culture (5 h). Format: cell-based. As to conditions: Homo sapiens, THP-1, 5 h, compound at 30 μM, 30 uM cGAMP = 100%, read-out: % Effect at 30 μM relative to 2′3′-cGAMP. The procedure:
The ability of compounds to stimulate the secretion of interferon-beta from THP1 cells was measured using a human IFN-β AlphaLISA kit (Perkin Elmer, Cat. No. AL265F). The basic protocol is as follows:
A Labcyte Echo 550 acoustic dispenser was used to transfer 120 nL of compound dissolved in DMSO into the wells of an empty, sterile 384-well microplate, (Corning, Cat. No. 3712). THP1 cells (American Type Culture Collection, Cat. No. TIB202) previously frozen in Recovery Medium (Life Technologies, Cat. No. 12648-010) were thawed and immediately diluted 10-fold into 37° C. assay medium (RPMI 1640+L-Glutamine & phenol red, Life Technologies, Cat. No. 11875-085; 0.5% heat inactivated fetal bovine serum, Sigma Aldrich, Cat. No. F4135; 1 mM Sodium Pyruvate, Life Technologies, Cat. No. 11360-070; 1× non-essential amino acids; Life Technologies, Cat. No. 11140-050). The cell viability and count was ascertained using a Beckman Coulter V-Cell XR cell counter. The cells suspension was centrifuged at 200×g for 5 min at RT. Cells were resuspended to a density of 0.8×10^6/mL in 37° C. assay medium. Subsequent liquid transfers were performed using either a Matrix electronic multichannel pipette or an Agilent Bravo Automated Liquid Handling Platform.
The assay was started by dispensing 40 μL of the previously prepared cell suspension into the wells of the plate containing compounds. After 5 h incubation at 37° C., 5% CO2 in a humidified atmosphere, the plate of cells and compounds was centrifuged at 200×g for 5 min at RT. From each well, 5 μL of supernatant was transferred into corresponding wells of a white 384-well plate (Perkin Elmer, Cat. No. 6005620). To these supernatant-containing wells was added 10 μL of 5× Anti-Analyte Acceptor beads (50 μg/mL of AlphaLISA HiBlock Buffer) and incubated for 30 min at RT while shaking on an orbital plate shaker. To each well was added 10 μL of 5× Biotinylated Antibody Anti-analyte (5 nM in AlphaLISA HiBlock Buffer) and incubated on an orbital plate shaker for 60 min at RT or overnight at 4° C. To each well was added 25 μL of 2× SA-Donor beads (80 μg/mL in AlphaLISA HiBlock Buffer) and incubated for 30-45 min at RT in the dark while shaking on an orbital plate shaker. The plate was then read on a Perkin Elmer Envision (λex=680 nm, […]). The percent effect of the AlphaLISA signal at each compound concentration was calculated based on 30 uM cGAMP positive controls and 0.3% DMSO negative controls. The plot of percent effect versus the log of compound concentration was fit with a 4-parameter concentration response equation to calculate EC50 values. The test compounds were tested at concentrations 30000, 10000, 3333, 1111, 370.4, 123.4, 41.2, 13.7, 4.6, and 1.5 nM with 0.3% residual DMSO. The control compound, cGAMP was tested at concentrations 100000, 33333, 11111, 3704, 1235, 412, 137, 46, and 15 nM with 0.3% residual DMSO.
Compounds of the disclosure were evaluated for IFN-β secretion in THP1 cell culture as described above. The following table tabulates the biological data for these compounds as percent activation relative to 2′3′-cGAMP at the 30 µM concentration.

Another experiment concerns the target T2, full-length WT STING (Homo sapiens, UniProt Q86WV6, H232R).
T2 construct: AviTag (after gg linker) (C); HRV3C cleavage site (after gs linker) (C); HIS8 (C); made in house; host or cells: Trichoplusia ni (Hi-Five) insect cells infected with baculovirus (virus generated and amplified in Sf21 cells); used as a washed membrane preparation
The experiment in a line: 3H-cGAMP filtration binding assay (WT STING). The following applies: competition with tritiated cGAMP, WT STING membrane. Here is the method: The ability of compounds to bind STING is quantified by their ability to compete with tritiated cGAMP ligand for human STING receptor membrane using a radioactive filter-binding assay. The binding assay employs STING receptor obtained from Trichoplusia ni cell membranes (T. ni; Expression Systems, cat #94-002F, www.expressionsystems.com) overexpressing full-length WT STING and tritiated cGAMP ligand.
The basic WT STING filtration assay protocol is as follows:
16 nM of [^3H] c-GAMP ligand was prepared by diluting into assay buffer, and 50 uL of this working stock was manually added to each well of the assay plate. After ligand addition, 2 uL of either titrated test compound, DMSO control (Sigma #276855), or cold cGAMP control was added to the appropriate wells using a BIOMEK FX. The serially titrated compound was prepared on a Hamilton STARPlus CORE in a 96-well plate (Greiner, #651201) using a 1:3 ten-point dose response format. Following compound addition, a 2.2 ug/ml working concentration of STING membrane (SEQ. ID. No. 3) was prepared by diluting concentrated membrane into assay buffer (1×PBS; Invitrogen # SH30028.02) and douncing 7× using a manual tissue homogenizer (Wheaton, #357546). 148 uL of this prepared membrane was then manually added to each well of a 96-well deep-well polypropylene plate (Fisher Scientific, #12-566-121). Compound, ligand, and membrane then incubated for 60 min at RT before the contents of each assay plate were filtered through a 96-well GF/B filter plate (PerkinElmer, #6005250) using a TOMTEC MACH III Cell Harvester equipped with 20 mM HEPES buffer (Fisher Scientific, # BP299500). The filter plates were then dried at 55° C. for 30 min using a pressurized VWR oven before 30 uL of ULTIMA GOLD F scintillate was added to each well. Tritium levels for each reaction well were then measured using a PerkinElmer TopCount plate reader.
as §1

T2 sequence (Q86WV6 with tags, fused parts or gaps H232R): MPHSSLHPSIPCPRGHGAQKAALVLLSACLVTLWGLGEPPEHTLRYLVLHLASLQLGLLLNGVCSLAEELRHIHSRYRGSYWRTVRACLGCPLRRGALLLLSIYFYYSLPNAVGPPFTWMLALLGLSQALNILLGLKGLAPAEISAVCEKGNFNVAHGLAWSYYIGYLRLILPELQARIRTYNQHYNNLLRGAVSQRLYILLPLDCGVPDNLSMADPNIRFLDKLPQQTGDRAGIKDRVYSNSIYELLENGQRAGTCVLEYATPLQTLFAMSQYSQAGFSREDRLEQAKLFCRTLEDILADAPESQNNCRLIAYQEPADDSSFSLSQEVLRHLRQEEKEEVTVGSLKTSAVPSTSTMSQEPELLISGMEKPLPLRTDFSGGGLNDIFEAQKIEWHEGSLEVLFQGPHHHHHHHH
T1 sequence (Q86WV6 with tags, fused parts or gaps R71H/G230A/H232R/R293Q): as the sequence (Q86WV6 with tags, fused parts or gaps H232R) above, with R71H, G230A, R293Q counted along it

A word on the EC50: it is the midpoint of the concentration-response curve. On to `COc1cc2sc(C(=O)C[C@H](C)C(=O)O)cc2nc1OCCOc1c(OC)cc2sc(C(=O)C[C@H](C)C(=O)O)cc2c1F` (racemic) [Example 19, rac-(R)-4-(5-(2-((2-((R)-3-carboxybutanoyl)-4-fluoro-6-methoxybenzo[b]thiophen-5-yl)oxy)ethoxy)-6-methoxythieno[3,2-b]pyridin-2-yl)-2-methyl-4-oxobutanoic acid], for which the EC50 on full-length HAQ STING was 2 nM; on full-length WT STING it was 9 nM. Also, in experiment [1], the activation at 30 µM was found to be 30%.
In the case of `COc1cc2sc(C(=O)C[C@H](C)C(=O)O)cc2nc1OCCCOc1c(OC)cc2sc(C(=O)C[C@H](C)C(=O)O)cc2c1F` (racemic) [Example 22, rac-(R)-4-(5-(3-((2-((R)-3-carboxybutanoyl)-4-fluoro-6-methoxybenzo[b]thiophen-5-yl)oxy)propoxy)-6-methoxythieno[3,2-b]pyridin-2-yl)-2-methyl-4-oxobutanoic acid], the EC50 on full-length HAQ STING and at full-length WT STING was 1 nM throughout. The activation at 30 µM in experiment [1] turned out to be 48%.
In the case of `COc1cc2sc(C(=O)C[C@H](C)C(=O)O)cc2cc1OCCOc1cc2sc(C(=O)C[C@H](C)C(=O)O)cc2cc1OC` (racemic) [Example 57, rac-(R)-4-(5-(2-((2-((R)-3-carboxybutanoyl)-5-methoxybenzo[b]thiophen-6-yl)oxy)ethoxy)-6-methoxybenzo[b]thiophen-2-yl)-2-methyl-4-oxobutanoic acid], the figures for the EC50 at full-length HAQ STING and at full-length WT STING were 92 nM and 398 nM, respectively. Also, the activation at 30 µM in experiment [1] was 15%.
Consider `COc1cc2sc(C(=O)C[C@H](C)C(=O)O)cc2cc1OCCCOc1cc2cc(C(=O)[C@H]3C[C@@H]3C(=O)O)sc2cc1OC` (racemic) [Example 68, rac-(1R,2R)-2-(5-(3-((2-((R)-3-carboxybutanoyl)-6-methoxybenzo[b]thiophen-5-yl)oxy)propoxy)-6-methoxybenzo[b]thiophene-2-carbonyl)cyclopropane-1-carboxylic acid], for which the EC50 came out at 50 nM at full-length HAQ STING and 443 nM at full-length WT STING. The activation at 30 µM in experiment [1] stood at 24%.
The like results for `COc1cc2sc(C(=O)CCC(=O)O)cc2cc1CCCOc1c(OC)cc2sc(C(=O)[C@@H]3C[C@H]3C(=O)O)cc2c1F` (relative stereo) [Example 85, trans-2-(5-(3-(2-(3-carboxypropanoyl)-6-methoxybenzo[b]thiophen-5-yl)propoxy)-4-fluoro-6-methoxybenzo[b]thiophene-2-carbonyl)cyclopropane carboxylic acid] were, in that order, 360 nM, 9010 nM and 145%.
As to `COc1cc2sc(C(=O)C[C@H](C)C(=O)O)cc2c(F)c1OCCCOc1cc2sc(C(=O)[C@@H]3CC[C@H]3C(=O)O)cc2c(F)c1OC` (single isomer, unassigned) [Example 97], the EC50 on full-length HAQ STING turned out to be 20 nM; at full-length WT STING, 69 nM.
Consider `COc1cc2sc(C(=O)C[C@H](C)C(=O)O)cc2c(F)c1OCCCOc1c(OC)cc2sc(C(=O)[C@@H]3CC[C@H]3C(=O)O)cc2c1F` [Example 98, trans-2-(5-(3-((2-((S)-3-carboxybutanoyl)-4-fluoro-6-methoxybenzo[b]thiophen-5-yl)oxy)propoxy)-4-fluoro-6-methoxybenzo[b]thiophene-2-carbonyl)cyclobutane carboxylic acid], for which, at full-length HAQ STING, a half-maximal effect (EC50) was put at 1 nM. Besides, the activation at 30 µM in experiment [1] is 92%.
`COc1cc2sc(C(=O)C[C@H](C)C(=O)O)cc2c(F)c1OCCCOc1c(OC)cc2sc(C(=O)[C@@H]3CC[C@H]3C(=O)O)cc2c1F` [Example 99, trans-2-(5-(3-((2-((S)-3-carboxybutanoyl)-4-fluoro-6-methoxybenzo[b]thiophen-5-yl)oxy)propoxy)-4-fluoro-6-methoxybenzo[b]thiophene-2-carbonyl)cyclobutane carboxylic acid]: the midpoint of the response on full-length HAQ STING, the EC50, lay at 1 nM.
